Measurements taken from patent publication US9522978B2, “PI polyamide” (NIHON UNIVERSITY, priority 2013, dated 2016).

How the values were obtained:
ACSL3 gene = assay: Examination of expression of ACSL3 gene by RT-PCR in LNCaP cells; assay type: cell-based, Human
Experimental: The expression of ACSL3 Gene was examined by RT-PCR in a cell into which each of the PI polyamides (1) to (3) was introduced. For comparison, the same examination was conducted for a cell into which the PI polyamide (control) was introduced.
The LNCaP cells were cultured for 3 days in the Phenol-Red-free medium of 3. (2) to which each of the PI polyamides was added at 5 μM. Subsequently, DHT (100 nM) of 4. was added into the medium to apply androgen stimulation.
After RNA is extracted from the cells by using Isogen (Nippon Gene) in accordance with a manual, cDNA was prepared by using PrimeScript (registered trademark) Reverse Transcriptase (manufactured by TaKaRa).
Each of the cDNAs prepared in 1) was used as a template DNA to examine with primers listed in Table 4 the presence/absence of expression of a fusion gene or an ERG gene in the prostate cancer cell into which each of the PI polyamides was introduced. In this RT-qPCR, Power SYBR (registered trademark) Green PCR Master Mix (manufactured by Applied Biosystems) was used.

LNCaP cells [1] = assay: Evaluation of proliferation ability by MTS assay; assay type: cell-based, Human
Experimental: After treatment with the PI polyamide (1) or the PI polyamide (control) for comparison, the proliferation ability of these cells were examined by MTS assay.
In particular, the LNCaP cells were seeded on a 96-well plate to 5×10^3 cells in total and cultured for 3 days in the Phenol-Red-free medium of 3. (2) to which each of the PI polyamides was added at 1 μM or 5 μM. Subsequently, DHT (100 nM) of 4. was added into the medium to apply androgen stimulation. After the stimulation, each of the cells were cultured for 24, 48, or 96 hours.
After the specified stimulation time, 10 μl of an MTS reagent (Cell Titer 96 AQueous One Solution Cell Proliferation Assay, Promega, Madison Wis.) was added to the cells before incubation for 1 hour. Subsequently, the absorbance (490 nm) of the cells was measured and the numbers of the cultured cells were examined to evaluate the cell proliferation ability.

LNCaP cells [2] = assay: Evaluation of cell migration ability (cell migration assay); assay type: cell-based, Human; details: 5 μM, 3 days, compared to PI polyamide (control), FIGS. 9 and 10
Experimental: After culturing cells into which the PI polyamide (1) was introduced and cells into which the PI polyamide (control) was introduced for comparison, the migration ability of the cells was examined by a cell migration assay using a cell culture insert and a 8.0 μm pore size PET filter (manufactured by Becton Dickinson).
In particular, after fibronectin (manufactured by Sigma) diluted with PBS to 10 μg/ml was allowed to act on a culture dish for 30 minutes to form a lower filter, 700 μl of the Phenol-Red-containing RPMI 1640 medium of 3. (1) was added to a lower chamber.
The LNCaP cells were cultured for 3 days in the Phenol-Red-containing medium of 3. (1) to which each of the PI polyamides was added at 5 μM and divided into units of 5×10^4 cells, and each unit of cells was suspended in 300 μl of the Phenol-Red-containing medium of 3. (1) and added to the upper chamber. After the cells were cultured at 37° C. under the condition of 5% CO2, the filter was peeled off.
The cells on the lower filter were fixed by methanol for 30 minutes and then incubated for 30 seconds in Gimsa's stain solution (manufactured by Muto Pure Chemicals). Subsequently, the cells were observed by a microscope of 200 magnifications to count the number of cells, thereby evaluating the cell migration ability.

[3] = system: Oct1 oligo DNA (Oct1 gene binding sequence, SEQ ID NO:1); assay: DNA Binding Assay (gel electrophoretic pattern); details: 5 μl of 0.2 mM PI polyamide mixed with 15 μl hairpin double strand DNA, 37° C. 1 hour
Experimental: For each of the PI polyamides (1) to (3) (three types) generated in 5, a DNA Binding Assay of the following steps 1) and 2) was performed to confirm binding to the Oct1 gene binding sequence (SEQ ID NO:1). The PI polyamide (control) was also examined in terms of the presence/absence of binding to the Oct1 gene binding sequence (SEQ ID NO:1).
1) Molecules (50-base) were created that have Oct1 oligo DNA including the same base sequence as the Oct1 gene binding sequence (SEQ ID NO:1) labelled with FITC, and the oligo at a final concentration of 1 μM was heated to 100° C. in an annealing buffer (20 mM Tris-HCl, 2 mM EDTA, 200 mM NaCl). The oligo was cooled for 2 hours in stages to 30° C. As a result, the Oct1 oligo DNA underwent self-annealing and forms a double strand in a hairpin shape.
2) 15 μl of solution containing the hairpin-shaped double strand DNA of 1) was mixed with 5 μl of each of the 0.2 mM PI polyamides (1) to (3) and PI polyamide (control) and incubated at 37° C. for 1 hour to acquire a mixed solution.
3) The mixed solution of 2) was electrophoresed in 5-20% acrylamide gel (TBE buffer) and an electrophoretic pattern was monitored with LAS 4000 (manufactured by GE Healthcare Japan) to determine the presence/absence of binding from a difference in the electrophoretic pattern.

ACSL3 protein = assay: Western blotting of ACSL3 protein from excised tumors; assay type: in vivo, Human; details: nude mice, tail vein 6 mg/kg once per week for 4 weeks, FIG. 12
Experimental: (§1) To 7-week-old male nude mice (n=10), 3×10^6 prostate cancer cells (LNCaP) were subcutaneously injected at the right flank. A tumor size was monitored by caliper measurement every 3 days. When the tumor size reaches […], the PI polyamide (1) or the PI polyamide (control) dissolved in dH2O was injected from a tail vein at 6 mg/kg bodyweight (PI polyamide (1): n=4, PI polyamide (control): n=6).
(§2) The injection was performed once per week for 4 weeks and the tumor size was measured every week. After one week from the last injection, the nude mice were dissected to excise the tumors.
FIG. 12 depicts a result of western blotting with an ACSL3 antibody of protein extracted using a lysis buffer (NP40 buffer) from the excised tumors (two individuals #1 and #2) (upper portion of FIG. 12; lower portion indicates expression of β-actin protein).

[4] = system: ACSL3 transcriptional regulatory region (AR response region); assay: Luciferase assay of AR activity in ACSL3 transcriptional regulatory region; assay type: cell-based, Human; details: LNCaP, 1 μM or 5 μM, DHT 100 nM, compared to same amount of PI polyamide (control), FIG. 6
Experimental: (§3) About 1 kb of AR binding site (ARBS) located 63 kb upstream of the ACSL3 transcription start point was extracted (SEQ ID NO:10) and insert into a luciferase vector (pGL3 promoter vector: Promega, Madison, Wis.). This vector was used for transfection of a prostate cancer cell (LNCaP) cultured for about 60 hours in the Phenol-Red-free medium of 3. (2) by using FuGENE (registered trademark) HD (Roche Applied Science) as a transection reagent in accordance with the protocol thereof.
(§4) After about 12 hours, androgen stimulation using 100 nM of DHT and introduction of the PI polyamide (1) or PI polyamide (control) (1 μM or 5 μM) were performed and followed by a luciferase assay. This test was conducted by using prostate cancer cells (LNCaP) incorporated with a PSA promoter region (SEQ ID NO:22) known to have AR response activity as a positive control for the luciferase vector.

PSA promoter region = assay: Luciferase assay of AR activity in PSA promoter region (positive control); assay type: cell-based, Human; details: LNCaP, compared to same amount of PI polyamide (control), FIG. 7
Experimental: as §3, §4

[5] = system: prostate cancer cells (LNCaP) tumor; assay: Effect of the PI polyamide on a tumor in nude mice injected with LNCaP; assay type: in vivo; details: tail vein 6 mg/kg once per week for 4 weeks, compared to PI polyamide (control), FIG. 11
Experimental: The effect of the PI polyamide on a tumor was confirmed.
as §1, §2

[6] = 5 μM, 3 days, androgen stimulation DHT 100 nM, FIG. 4
[7] = concentration and time not stated

With `CC(=O)Nc1cc(C(=O)Nc2cc(C(=O)NCCC(=O)Nc3cc(C(=O)Nc4cc(C(=O)Nc5cc(C(=O)NCCCC(=O)Nc6cn(C)c(C(=O)Nc7cc(C(=O)Nc8cc(C(=O)NCCC(=O)Nc9cc(C(=O)Nc%10cc(C(=O)NCCC(=O)NCCCN(C)C)n(C)c%10)n(C)c9)n(C)c8)n(C)c7)n6)n(C)c5)n(C)c4)n(C)c3)n(C)c2)n(C)c1` [PI polyamide (3), AcPyPyβPyPyPyγImPyPyβPyPyβDp] the “expression of the ACSL3 gene” value (ACSL3 gene; [6]) was “inhibited”, the cell proliferation (LNCaP cells [1]; [7]) was “suppressed in the same way” and the “cell migration ability (invasive potential)” value (shortened to “cell migration ability”) (LNCaP cells [2]) was “suppressed in the same way”.

“AcPyPyPyImβImγPyβPyImβImβDp [PI polyamide (control), reference compound]” was tested, and the “binding to the Oct1 oligo DNA (presence/absence)” value [3] was “no binding occurs”, the “expression of the ACSL3 gene” value (ACSL3 gene; [6]) was “not inhibited” and the “expression of the ACSL3 protein in excised tumors” value (ACSL3 protein) was “expressed”.

For `CC(=O)Nc1cc(C(=O)Nc2cc(C(=O)NCCC(=O)Nc3cn(C)c(C(=O)Nc4cc(C(=O)Nc5cc(C(=O)NCCCC(=O)Nc6cc(C(=O)Nc7cn(C)c(C(=O)Nc8cc(C(=O)NCCC(=O)Nc9cn(C)c(C(=O)Nc%10cc(C(=O)NCCC(=O)NCCCN(C)C)n(C)c%10)n9)n(C)c8)n7)n(C)c6)n(C)c5)n(C)c4)n3)n(C)c2)n(C)c1` [PI polyamide (1), AcPyPyβImPyPyγPyImPyβImPyβDp], the “expression of the ACSL3 gene” value (ACSL3 gene; 5 μM (1 μM or 5 μM tested), androgen stimulation, FIG. 5) was “particularly inhibited”, the “expression of the ACSL3 gene” value (ACSL3 gene; [6]) was “inhibited” and the “AR activity in the ACSL3 transcriptional regulatory region (AR response region)” value [4] was “significantly reduces”. For the same molecule, the “AR activity in the PSA promoter region” value (PSA promoter region) was “no significant difference”, the cell proliferation (LNCaP cells [1]; 5 μM, after 48 hours of incubation, compared to PI polyamide (control) 5 μM, FIG. 8) was “significantly inhibited” and the cell proliferation (LNCaP cells [1]; 5 μM, after 96 hours of incubation, FIG. 8) was “further significantly inhibited”. For the same molecule, the “cell migration ability” value (LNCaP cells [2]) was “significantly inhibited”, the formation of tumor [5] was “remarkably inhibited” and the “expression of the ACSL3 protein in excised tumors” value (ACSL3 protein) was “remarkably inhibited”.

In the case of `CC(=O)Nc1cn(C)c(C(=O)Nc2cc(C(=O)NCCC(=O)Nc3cc(C(=O)Nc4cc(C(=O)Nc5cc(C(=O)NCCCC(=O)Nc6cc(C(=O)Nc7cc(C(=O)Nc8cc(C(=O)NCCC(=O)Nc9cn(C)c(C(=O)Nc%10cc(C(=O)NCCC(=O)NCCCN(C)C)n(C)c%10)n9)n(C)c8)n(C)c7)n(C)c6)n(C)c5)n(C)c4)n(C)c3)n(C)c2)n1` [PI polyamide (2), AcImPyβPyPyPyγPyPyPyβImPyβDp], the “expression of the ACSL3 gene” value (ACSL3 gene; [6]) is reported as “inhibited”, the cell proliferation (LNCaP cells [1]; [7]) is reported as “suppressed in the same way” and the “cell migration ability” value (LNCaP cells [2]) is reported as “suppressed in the same way”.
